Test results reported in the supplement of paper PMC11061612.

What was measured:
Carboplatin = compound: C1CC(C1)(C(=O)[O-])C(=O)[O-].N.N.[Pt+2] [Carboplatin]; conditions: max 10 µM
Procedure, shortened: (§1)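 Cancer cell lines were seeded into 1536-well plates in 7.5 μl medium (DMEM/F12 or RPMI, 10% FBS), held 24 hours at 37°C and 5% CO2, and dosed for 72 hours with final DMSO typically 0.2%. Luminescence from CellTiter-Glo 2.0, scaled between blank-well and DMSO-well means, served as viability. The single-agent IC50 was obtained from dose-response fits with a non-linear mixed effects model, each fit being a two-parameter logistic curve.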

AZD5363 = compound: C1CN(CCC1(C(=O)N[C@@H](CCO)C2=CC=C(C=C2)Cl)N)C3=NC=NC4=C3C=CN4 [AZD5363]; conditions: max 10 µM
Procedure, shortened: as §1

AZD1775 = compound: C=CCn1c(=O)c2cnc(Nc3ccc(N4CCN(C)CC4)cc3)nc2n1-c1cccc(C(C)(C)O)n1 [AZD1775]; conditions: max 3 µM
Procedure, shortened: as §1

Trametinib = compound: CC(=O)Nc1cccc(-n2c(=O)n(C3CC3)c(=O)c3c(Nc4ccc(I)cc4F)n(C)c(=O)c(C)c32)c1 [Trametinib]; conditions: max 1 µM
Procedure, shortened: as §1

Paclitaxel = compound: CC(=O)O[C@H]1C(=O)[C@@]2(C)[C@H]([C@H](OC(=O)c3ccccc3)[C@]3(O)C[C@H](OC(=O)[C@H](O)[C@@H](NC(=O)c4ccccc4)c4ccccc4)C(C)=C1C3(C)C)[C@]1(OC(C)=O)CO[C@@H]1C[C@@H]2O [Paclitaxel]; conditions: max 3 µM
Procedure, shortened: as §1

Palbociclib = compound: CC(=O)c1c(C)c2cnc(Nc3ccc(N4CCNCC4)cn3)nc2n(C2CCCC2)c1=O [Palbociclib]; conditions: max 10 µM
Procedure, shortened: as §1

AZD1390 = compound: CC(C)n1c(=O)n(C)c2cnc3cc(F)c(-c4ccc(OCCCN5CCCCC5)nc4)cc3c21 [AZD1390]; conditions: max 0.3 µM
Procedure, shortened: as §1

Venetoclax = compound: CC1(C)CCC(CN2CCN(c3ccc(C(=O)NS(=O)(=O)c4ccc(NCC5CCOCC5)c([N+](=O)[O-])c4)c(Oc4cnc5[nH]ccc5c4)c3)CC2)=C(c2ccc(Cl)cc2)C1 [Venetoclax]; conditions: max 1 µM
Procedure, shortened: as §1

Dasatinib = compound: CC1=C(C(=CC=C1)Cl)NC(=O)C2=CN=C(S2)NC3=CC(=NC(=N3)C)N4CCN(CC4)CCO [Dasatinib]; conditions: max 2 µM
Procedure, shortened: as §1

SG3199 = compound: CC1=CN2[C@@H](C1)C=NC3=CC(=C(C=C3C2=O)OC)OCCCCCOC4=C(C=C5C(=C4)N=C[C@@H]6CC(=CN6C5=O)C)OC [SG3199]; conditions: max 0.001 µM
Procedure, shortened: as §1

AZD2811 = compound: CCN(CCO)CCCOc1ccc2c(Nc3cc(CC(=O)Nc4cccc(F)c4)[nH]n3)ncnc2c1 [AZD2811]; conditions: max 1 µM
Procedure, shortened: as §1

SN-38 = compound: CCc1c2c(nc3ccc(O)cc13)-c1cc3c(c(=O)n1C2)COC(=O)[C@]3(O)CC [SN-38]; conditions: max 0.3 µM
Procedure, shortened: as §1

AZD0156 = compound: CN(C)CCCOc1ccc(-c2ccc3ncc4c(c3c2)n(C2CCOCC2)c(=O)n4C)cn1 [AZD0156]; conditions: max 3 µM
Procedure, shortened: as §1

AZD4320 = compound: CN(CC[C@H](CSC1=CC=CC=C1)NC2=C(C=C(C=C2)S(=O)(=O)NC(=O)C3=CC=C(C=C3)N4CCC(CC4)[C@H](C5=CC=CC=C5C6=CC=C(C=C6)Cl)O)S(=O)(=O)C(F)(F)F)CCO [AZD4320]; conditions: max 1 µM
Procedure, shortened: as §1

Alisertib = compound: COc1cc(Nc2ncc3c(n2)-c2ccc(Cl)cc2C(c2c(F)cccc2OC)=NC3)ccc1C(=O)O [Alisertib]; conditions: max 10 µM
Procedure, shortened: as §1

Etoposide = compound: COc1cc([C@@H]2c3cc4c(cc3[C@@H](O[C@@H]3O[C@@H]5CO[C@@H](C)O[C@H]5[C@H](O)[C@H]3O)[C@H]3COC(=O)[C@H]23)OCO4)cc(OC)c1O [Etoposide]; conditions: max 10 µM
Procedure, shortened: as §1

Gefitinib = compound: COc1cc2ncnc(Nc3ccc(F)c(Cl)c3)c2cc1OCCCN1CCOCC1 [Gefitinib]; conditions: max 10 µM
Procedure, shortened: as §1

Prexasertib = compound: COc1cccc(OCCCN)c1-c1cc(Nc2cnc(C#N)cn2)n[nH]1 [Prexasertib]; conditions: max 1 µM
Procedure, shortened: as §1

Doxorubicin = compound: COc1cccc2c1C(=O)c1c(O)c3c(c(O)c1C2=O)C[C@@](O)(C(=O)CO)C[C@@H]3O[C@H]1C[C@H](N)[C@H](O)[C@H](C)O1 [Doxorubicin]; conditions: max 1 µM
Procedure, shortened: as §1

AZD5153 = compound: COc1nnc2ccc(N3CCC(c4ccc(OCCN5CCN(C)C(=O)[C@H]5C)cc4)CC3)nn12 [AZD5153]; conditions: max 1 µM
Procedure, shortened: as §1

Lapatinib = compound: CS(=O)(=O)CCNCc1ccc(-c2ccc3ncnc(Nc4ccc(OCc5cccc(F)c5)c(Cl)c4)c3c2)o1 [Lapatinib]; conditions: max 10 µM
Procedure, shortened: as §1

AZD8186 = compound: C[C@@H](Nc1cc(F)cc(F)c1)c1cc(C(=O)N(C)C)cc2c(=O)cc(N3CCOCC3)oc12 [AZD8186]; conditions: max 10 µM
Procedure, shortened: as §1

Crizotinib = compound: C[C@@H](Oc1cc(-c2cnn(C3CCNCC3)c2)cnc1N)c1c(Cl)ccc(F)c1Cl [Crizotinib]; conditions: max 10 µM
Procedure, shortened: as §1

Savolitinib = compound: C[C@@H](c1ccc2nccn2c1)n1nnc2ncc(-c3cnn(C)c3)nc21 [Savolitinib]; conditions: max 1 µM
Procedure, shortened: as §1

AZD6738 = compound: C[C@@H]1COCCN1C2=NC(=NC(=C2)C3(CC3)[S@](=N)(=O)C)C4=C5C=CNC5=NC=C4 [AZD6738]; conditions: max 10 µM
Procedure, shortened: as §1

AZD5991 = compound: Cc1c2c(nn1C)CSCc1cc(n(C)n1)CSc1cc(c3ccccc3c1)OCCCc1c(C(=O)O)n(C)c3c-2c(Cl)ccc13 [AZD5991]; conditions: max 1 µM
Procedure, shortened: as §1

AZD7648 = compound: Cc1cc2ncnn2cc1Nc1ncc2c(n1)n(C1CCOCC1)c(=O)n2C [AZD7648]; conditions: max 10 µM
Procedure, shortened: as §1

Taselisib = compound: Cc1nc(-c2cn3c(n2)-c2ccc(-c4cnn(C(C)(C)C(N)=O)c4)cc2OCC3)n(C(C)C)n1 [Taselisib]; conditions: max 10 µM
Procedure, shortened: as §1

Selumetinib = compound: Cn1cnc2c(F)c(Nc3ccc(Br)cc3Cl)c(C(=O)NOCCO)cc21 [Selumetinib]; conditions: max 10 µM
Procedure, shortened: as §1

SRA737 = compound: N#Cc1cnc(Nc2cc(NC[C@H]3CNCCO3)c(C(F)(F)F)cn2)cn1 [SRA737]; conditions: max 10 µM
Procedure, shortened: as §1

MK-2206 = compound: NC1(c2ccc(-c3nc4ccn5c(=O)[nH]nc5c4cc3-c3ccccc3)cc2)CCC1 [MK-2206]; conditions: max 10 µM
Procedure, shortened: as §1

Gemcitabine = compound: Nc1ccn([C@@H]2O[C@H](CO)[C@@H](O)C2(F)F)c(=O)n1 [Gemcitabine]; conditions: max 0.3 µM
Procedure, shortened: as §1

[1] = compound: O=C(Nc1ccc2[nH]nc(-c3ccncc3)c2c1)[C@@H]1CCN(CC(=O)N2CCN(c3ccc(-c4ncccn4)cc3)CC2)C1; conditions: max 5 µM
Procedure, shortened: as §1

Olaparib = compound: O=C(c1cc(Cc2n[nH]c(=O)c3ccccc23)ccc1F)N1CCN(C(=O)C2CC2)CC1 [Olaparib]; conditions: max 10 µM
Procedure, shortened: as §1

5-Fluorouracil = compound: O=c1[nH]cc(F)c(=O)[nH]1 [5-Fluorouracil]; conditions: max 20 µM
Procedure, shortened: as §1

Row | Cell Line | IC50, cell viability 72 h (Carboplatin) | IC50, cell viability 72 h (AZD5363) | IC50, cell viability 72 h (AZD1775) | IC50, cell viability 72 h (Trametinib) | IC50, cell viability 72 h (Paclitaxel) | IC50, cell viability 72 h (Palbociclib) | IC50, cell viability 72 h (AZD1390) | IC50, cell viability 72 h (Venetoclax) | IC50, cell viability 72 h (Dasatinib) | IC50, cell viability 72 h (SG3199) | IC50, cell viability 72 h (AZD2811) | IC50, cell viability 72 h (SN-38) | IC50, cell viability 72 h (AZD0156) | IC50, cell viability 72 h (AZD4320) | IC50, cell viability 72 h (Alisertib) | IC50, cell viability 72 h (Etoposide) | IC50, cell viability 72 h (Gefitinib) | IC50, cell viability 72 h (Prexasertib) | IC50, cell viability 72 h (Doxorubicin) | IC50, cell viability 72 h (AZD5153) | IC50, cell viability 72 h (Lapatinib) | IC50, cell viability 72 h (AZD8186) | IC50, cell viability 72 h (Crizotinib) | IC50, cell viability 72 h (Savolitinib) | IC50, cell viability 72 h (AZD6738) | IC50, cell viability 72 h (AZD5991) | IC50, cell viability 72 h (AZD7648) | IC50, cell viability 72 h (Taselisib) | IC50, cell viability 72 h (Selumetinib) | IC50, cell viability 72 h (SRA737) | IC50, cell viability 72 h (MK-2206) | IC50, cell viability 72 h (Gemcitabine) | IC50, cell viability 72 h [1] | IC50, cell viability 72 h (Olaparib) | IC50, cell viability 72 h (5-Fluorouracil)
1 | KINGS-1 (Low Grade Glioma) | > 10 µM | > 10 µM | > 3 µM | > 1 µM | > 3 µM | > 10 µM | > 0.3 µM | > 1 µM | > 2 µM | > 0.001 µM | > 1 µM | > 0.3 µM | > 3 µM | > 1 µM | > 10 µM | > 10 µM | > 10 µM | > 1 µM | > 1 µM | > 1 µM | > 10 µM | > 10 µM | > 10 µM | > 1 µM | > 10 µM | > 1 µM | > 10 µM | > 10 µM | > 10 µM | > 10 µM | > 10 µM | > 0.3 µM | > 5 µM | > 10 µM | > 20 µM
2 | LC4-1 (B-Lymphoblastic Leukemia) | > 10 µM | > 10 µM | 0.269 µM | > 1 µM | 0.00682 µM | 4.23 µM | > 0.3 µM | 0.00363 µM | > 2 µM | > 0.001 µM | 0.0111 µM | 0.00226 µM | > 3 µM | 0.00254 µM | 0.529 µM | 0.355 µM | > 10 µM | 0.0118 µM | 0.0833 µM | 0.0743 µM | 6.11 µM | > 10 µM | 3 µM | > 1 µM | 1.28 µM | 0.22 µM | > 10 µM | > 10 µM | > 10 µM | 3.64 µM | > 10 µM | 0.0309 µM | 3.95 µM | > 10 µM | 9.63 µM
3 | NB7 (Neuroblastoma) | > 10 µM | > 10 µM | 0.963 µM | > 1 µM | 0.268 µM | > 10 µM | > 0.3 µM | > 1 µM | > 2 µM | > 0.001 µM | > 1 µM | 0.0349 µM | > 3 µM | > 1 µM | 6.06 µM | 6.52 µM | > 10 µM | 0.072 µM | > 1 µM | > 1 µM | > 10 µM | > 10 µM | > 10 µM | > 1 µM | > 10 µM | > 1 µM | > 10 µM | > 10 µM | > 10 µM | > 10 µM | > 10 µM | 0.141 µM | > 5 µM | > 10 µM | > 20 µM
4 | NCI-N87 (Gastric Carcinoma) | > 10 µM | 4.23 µM | 1.69 µM | 0.404 µM | 0.43 µM | > 10 µM | > 0.3 µM | > 1 µM | 1.85 µM | > 0.001 µM | > 1 µM | 0.0598 µM | > 3 µM | > 1 µM | > 10 µM | 6.74 µM | 1.96 µM | 0.0755 µM | 0.423 µM | > 1 µM | 0.077 µM | > 10 µM | > 10 µM | > 1 µM | 4.36 µM | > 1 µM | > 10 µM | 0.218 µM | > 10 µM | > 10 µM | 6.77 µM | 0.0887 µM | > 5 µM | > 10 µM | > 20 µM
5 | OCUB-M (Breast Carcinoma) | > 10 µM | 0.429 µM | > 3 µM | > 1 µM | 0.00926 µM | > 10 µM | > 0.3 µM | > 1 µM | > 2 µM | > 0.001 µM | 0.0734 µM | 0.0492 µM | > 3 µM | 0.878 µM | 2.81 µM | 0.634 µM | > 10 µM | 0.463 µM | 0.241 µM | > 1 µM | 4.79 µM | > 10 µM | > 10 µM | > 1 µM | > 10 µM | 0.104 µM | > 10 µM | 0.109 µM | > 10 µM | > 10 µM | 1.22 µM | 0.0911 µM | > 5 µM | > 10 µM | > 20 µM
